Test results published in US20110054033A1, “METHODS OF USING ABSCISIC ACID FOR AMELIORATING HYPERTENSION AND VASCULAR INFLAMMATION” (Virginia Tech Intellectual Properties, Inc., priority 2009, published 2011).

Experiments:
eNOS = eNOS mRNA expression in HAECs by real time PCR; type: cell-based, human; conditions: 10 μM ABA, 24 hours, P<0.02
ApoE-deficient mice = assay: Histology analyses of the aorta (areas, thickness, lesion severity); type: in vivo
Procedure: FIG. 4 are photos and graphs showing aortas collected on day 84 of dietary intervention. Representative photomicrographs (100×) of aortic root specimens from (A) control and (B) ABA-fed mice. (C) Analysis of lumenal areas and (D) tunica media areas were performed with aortic cross-sections using Image Pro Plus software. (E) Aortic thickness was analyzed as a ratio of the intima to the media. Gene expression in the aorta of (F) endothelial nitric oxide synthase (eNOS) and (G) 15-lipoxygenase (15-LOX) were measured as a ratio to the house-keeping gene β-actin. Data were analyzed as a completely randomized design.
FIG. 5 are photos and graphs showing histological examination of aortic lesions. ApoE −/− mice were fed high fat diets created with or without abscisic acid (ABA, 100 mg/kg diet). After 84 days aortas were excised and lesions were analyzed histologically according to methods described by van Vlijmen et al[13]. Representative photomicrographs (100×) of a (A) mild and (B) severe lesion are depicted. (C) The total number of mild (categories 1-3) and severe (categories 4-5) lesions from control and ABA-fed mice are shown. (D) Lesional areas, as a percent of total lumen area, for control and ABA-fed mice were calculated from histological sections with Image Pro Plus software. Data are represented as mean±standard error.
The aortic root sections used for histological analyses were perfusion-fixed with paraformaldehyde. Samples of aortas were cut transversally, stained with hematoxylin and eosin, and analyzed histologically. Areas for the lumen, tunica media, and aortic lesions and the thicknesses of the tunica intima and media were assessed using Image Pro Plus 6.1 software (Media Cybernetics, Bethesda, Md.). For thickness analyses, eight different measurements from the intima and media were taken using previously described methods (Hazell et al., Free Radic. Biol. Med. 31:1254-62, 2001). For semiquantitative assessment of lesion severity, methods described by van Vlijmen et al were used (van Vlijmen et al., J. Clin. Invest. 93:1403-10, 1994). Briefly, lesions were classified into five categories (1) early fatty streak: per section up to 10 foam cells present in the intima, (2) regular fatty streak: more than 10 cells present in the intima, (3) mild plaque: extension of foam cells into the media and mild fibrosis of the media without significant loss in architecture, (4) moderate plaque: foam cells in media, fibrosis, cholesterol clefts, mineralization, and/or necrosis of the media, (5) severe plaque: as 4 but more extensive and deeper in the media. Scoring classifications were applied to 15 lesions from control and ABA-fed mice. Lesions falling in categories 1-3 were classified as mild and 4-5 as severe.

[1] = FPLC separation of plasma lipoproteins; type: in vivo; conditions: ApoE-deficient mice, FIG. 2
Procedure: (§1) FIG. 2 is a graph showing fast performance liquid chromatography (FPLC) separation of plasma lipoproteins performed on a Superose 6 column using buffer containing 0.15M NaCl, 0.01M Na2HPO4 and 1 mM EDTA at a flow rate of 0.5 ml/min. Forty 0.5 ml fractions were collected and cholesterol was measured in fractions 10-40. Fractions 15-20 contain VLDL, fractions 21-27 contain LDL and fractions 28-34 contain HDL.
as §1, with “Plasma cholesterol and triglyceride levels were measured using kits from Raichem (San Diego, Calif.) adapted for microtiter plate assays. Plasma free fatty acids were measured using the NEFA-HR(2) kit from Wako. Fast” for “FIG. 2 is a graph showing fast”, “lipoproteins was” for “lipoproteins”

[2] = tested on: F4/80+CD11b+ macrophages and CD4+ T-cells; assay: Flow cytometry of immune cell infiltration into the aortic root; type: in vivo, mice; conditions: day 84, flow cytometry
Procedure: FIG. 6 are graphs showing that ABA decreases immune cell infiltration in aortas of ApoE−/− mice and reduces pro-inflammatory gene expression. ApoE −/− mice were fed high fat diets created with or without 100 mg/kg diet racemic abscisic acid (ABA). (A) Infiltration of F4/80^+CD11b^+ macrophages and CD4^+ T-cells into the aorta were assessed with flow cytometry. Gene expression in the aorta of pro-inflammatory markers (B) vascular cell adhesion molecule 1 (VCAM-1), (C) monocyte chemoattractant protein 1 (MCP-1), (D) E-selectin, (F) peroxisome proliferator-activated receptor γ (PPAR γ), and (G) CD36 were measured as a ratio to the housekeeping gene β-actin. (H) MCP-1 protein concentrations (pg/mL) were measured by ELISA. Data were analyzed as a completely randomized design.
After euthanization, mouse hearts were perfused with PBS for 2 minutes. Aortas were then extracted. Aortic roots were cut into small […] pieces, and placed in 1× Hanks Balanced Sodium Salt Solution (HBSS) containing 0.2% type II collagenase (Worthington Biochemicals). After digestion at 37° C. for 1 hour, samples were sent through a […] nylon filter (BD), washed with HBSS, and centrifuged at 1200 rpm for 10 min. Cell suspensions were then resuspended in FACS buffer and enumerated by using a Z1 Single Particle Counter (Beckman Coulter). […]

SMILES: CC1=CC(=O)CC(C)(C)C1(O)/C=C/C(C)=C\C(=O)O (racemic) [ABA, abscisic acid]
- eNOS mRNA levels vs vehicle (eNOS): significantly (P<0.02) increased
- Lesion area as a percent of total lumenal area vs control (ApoE-deficient mice; day 84): significantly decreased
- Aortic luminal area vs control (ApoE-deficient mice; day 84, aortic cross-sections): no significant differences
- Aortic tunica media area vs control (ApoE-deficient mice; day 84, aortic cross-sections): no significant differences
- Intima to media ratio vs control (ApoE-deficient mice; day 84, aortic root): significantly lower
- Number of mild lesions (categories 1-3) (ApoE-deficient mice; of 15 lesions scored, day 84): 10
- Number of severe lesions (categories 4-5) (ApoE-deficient mice; of 15 lesions scored, day 84, control-fed mice 8 of 15): 5
- FPLC lipoprotein cholesterol profile vs control diet [1]: slight shift in the profiles to lower VLDL and higher LDL and HDL
- Recruitment of CD4+ T-cells in the aortic root vs control [2]: significantly reduces recruitment
- Recruitment of F4/80+CD11b+ macrophages in the aortic root vs control [2]: significantly reduces recruitment
